Our source for the TGI and GI50 values is PubChem BioAssay (NCI).

Structures are written as SMILES. Converted amounts (≈) assume the structure as drawn.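 Test compounds were applied to cells in 96-well plates for 48 hours at 5 doses. GI50: concentration for 50% inhibition of growth. TGI marks complete inhibition of growth.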

Among the test systems are SNB-75 CNS; IGROV1 ovarian; A549 NSCLC; HT29 colon; OVCAR-3 ovarian; SF-295 CNS; A498 renal; CCRF-CEM leukemia; HCC-2998 colon; SK-OV-3 ovarian; HOP-62 NSCLC.
What all share (assay): NCI-60 cell line screen, 48 h

For the compound `CO/N=C1\CC(NC(=O)C(F)(F)F)c2ccsc21` (configuration not stated), the TGI in the assay on SNB-75 CNS, in the assay with IGROV1 ovarian, with A549 NSCLC, in the assay with HT29 colon, in the assay on OVCAR-3 ovarian and with SF-295 CNS was over 100 µM throughout. For the same compound, the TGI with A498 renal, in the assay with CCRF-CEM leukemia, with HCC-2998 colon, in the assay on SK-OV-3 ovarian and with HOP-62 NSCLC was over 100 µM in each case.
For the compound `COC(=O)C(Cc1cn(C(C)n2cc(CC(NC(C)=O)C(=O)OC)c3ccccc32)c2ccccc12)NC(C)=O` (configuration not stated), the TGI in the assay on SNB-75 CNS is 83.3 µM; with IGROV1 ovarian it was over 100 µM; in the assay on A549 NSCLC, over 100 µM; in the assay on HT29 colon, over 100 µM; in the assay with OVCAR-3 ovarian it was over 100 µM; in the assay with SF-295 CNS it was over 100 µM. Moreover, the TGI in the assay with A498 renal, in the assay with CCRF-CEM leukemia, in the assay with HCC-2998 colon, in the assay with SK-OV-3 ovarian and in the assay on HOP-62 NSCLC was over 100 µM in each case.
With `O=c1oc2ccccc2c(O)c1Cc1ccc(Cc2c(O)c3ccccc3oc2=O)cc1`, the TGI in the assay with SNB-75 CNS, in the assay on IGROV1 ovarian, with A549 NSCLC, with HT29 colon, in the assay on OVCAR-3 ovarian and in the assay with SF-295 CNS was over 100 µM each time. Besides, the TGI in the assay with A498 renal, in the assay on CCRF-CEM leukemia, with HCC-2998 colon, in the assay with SK-OV-3 ovarian and in the assay on HOP-62 NSCLC was over 100 µM each time.
As to `O=C(O)c1nc2ccc(C(F)(F)F)cc2[nH]c1=O`, the TGI in the assay with IGROV1 ovarian, in the assay on A549 NSCLC, in the assay with HT29 colon, with OVCAR-3 ovarian, in the assay with SF-295 CNS and with A498 renal was over 100 µM each time. Besides, the TGI in the assay on CCRF-CEM leukemia, in the assay with HCC-2998 colon, in the assay on SK-OV-3 ovarian and in the assay on HOP-62 NSCLC was over 100 µM each time.
Take `CCOC(=O)c1csc(NC(=O)C(C)N2CCCC2)n1` (configuration not stated): the TGI with SNB-75 CNS, with IGROV1 ovarian, in the assay with A549 NSCLC, in the assay on HT29 colon, in the assay with OVCAR-3 ovarian and in the assay with SF-295 CNS was over 100 µM each time. In addition, the TGI in the assay on A498 renal, in the assay on CCRF-CEM leukemia, in the assay with HCC-2998 colon, in the assay on SK-OV-3 ovarian and in the assay on HOP-62 NSCLC was over 100 µM throughout.
With `CC(=O)NNc1nc(C)c(C(=O)NNC(=O)C(=O)Nc2ccc([N+](=O)[O-])cc2[N+](=O)[O-])s1`, the TGI with SNB-75 CNS, with IGROV1 ovarian, in the assay on A549 NSCLC, in the assay on HT29 colon, in the assay with SF-295 CNS and with A498 renal was over 100 µM each time. The TGI was 79.6 µM with CCRF-CEM leukemia, over 100 µM in the assay on HCC-2998 colon, over 100 µM with SK-OV-3 ovarian and over 100 µM with HOP-62 NSCLC.
Regarding `O=C1NN(C2=NNC3(C(=O)N2)c2ccccc2-c2ccccc23)C(c2ccccc2)=N/C1=C/c1ccc(Cl)cc1`, the GI50 in the assay with SNB-75 CNS was 57.2 µg/mL (≈ 105 µM); with IGROV1 ovarian, 60.5 µg/mL (≈ 111 µM); in the assay with A549 NSCLC it was 60.2 µg/mL (≈ 111 µM); with HT29 colon, 89.6 µg/mL (≈ 164 µM); with OVCAR-3 ovarian, 29.5 µg/mL (≈ 54.2 µM); in the assay on SF-295 CNS it was 30.7 µg/mL (≈ 56.3 µM). Besides, the GI50 in the assay with CCRF-CEM leukemia was 52.6 µg/mL (≈ 96.5 µM); in the assay with SK-OV-3 ovarian, 54 µg/mL (≈ 99.1 µM); in the assay with HOP-62 NSCLC it was 49.1 µg/mL (≈ 90 µM). The TGI was over 150 µg/mL in the assay on SNB-75 CNS; over 150 µg/mL with IGROV1 ovarian; over 150 µg/mL in the assay with A549 NSCLC; over 150 µg/mL in the assay with HT29 colon; 69.3 µg/mL in the assay on OVCAR-3 ovarian; 73.9 µg/mL with SF-295 CNS. For the same compound, the TGI in the assay on CCRF-CEM leukemia, in the assay with SK-OV-3 ovarian and in the assay on HOP-62 NSCLC was over 150 µg/mL in each case.
